Assay results taken from patent US12421243B2, “Pharmaceutically effective compounds inhibiting selectively the myosin 2 isoforms” (PRINTNET KERESKEDELMI ÉS SZOLGÁLTATÓ KFT., priority 2018, dated 2025).

Assays:
[1] = biological target: recombinant human non-muscle myosin 2 NM2C (Homo sapiens, UniProt Q7Z406); assay: actomyosin steady state ATPase measurement, NM2C; assay type: biochemical; details: for IC50: concentration required for semi-maximal inhibition of ATPase; for % inhibition. complete NM2C: maximum value of inhibition of ATPase activity; for inhibition at 5 µM: read-out: % inhibition at 5 μM (or 10 μM if racemate) NM2C, 5 μM (10 μM if racemate); for inhibition at 5 µM / inhibition at 50 µM: ATPase activity; for inhibition at 50 µM: read-out: % inhibition at 50 μM (or 100 μM if racemate) NM2C, 50 μM (100 μM if racemate)
Excerpt: (§1) […]; (ii) the concentration required for semi-maximal inhibition.

[2] = biological target: isolated smooth muscle myosin (UniProt P10587); assay type: biochemical, chamois; details: concentration required for semi-maximal inhibition of ATPase
Excerpt: (ii) the concentration required for semi-maximal inhibition.

[3] = test system: isolated rabbit skeletal muscle myosin (skeletal); assay: actomyosin steady state ATPase measurement, skeletal muscle myosin; assay type: biochemical; details: for % inhibition at 5 μM (or 10 μM if racemate) Skeletal: 5 μM (10 μM if racemate); for % inhibition at 5 μM (or 10 μM if racemate) Skeletal / % inhibition at 50 μM (or 100 μM if racemate) Skeletal: ATPase activity; for % inhibition at 50 μM (or 100 μM if racemate) Skeletal: 50 μM (100 μM if racemate); for IC50: concentration required for semi-maximal inhibition of ATPase; for % inhibition. complete Skeletal: maximum value of inhibition of ATPase activity; for Inhibition (%) skeletal: maximum inhibition, compounds in IC50 range 1-2 μM
Excerpt: as §1

[4] = biological target: isolated smooth muscle myosin (UniProt P10587); assay type: biochemical, chamois; details: for % inhibition at 5 μM (or 10 μM if racemate) Smooth: 5 μM (10 μM if racemate); for % inhibition at 5 μM (or 10 μM if racemate) Smooth / % inhibition at 50 μM (or 100 μM if racemate) Smooth: ATPase activity; for % inhibition at 50 μM (or 100 μM if racemate) Smooth: 50 μM (100 μM if racemate); for % inhibition. complete Smooth: maximum value of inhibition of ATPase activity
[5] = biological target: T1, isolated porcine cardiac ventricular myocardium (cardiac) (Sus scrofa, UniProt P79293); assay: actomyosin steady state ATPase measurement, cardiac myosin; assay type: biochemical; details: for IC50: concentration required for semi-maximal inhibition of ATPase; for % inhibition. complete cardiac: maximum value of inhibition of ATPase activity; for inhibition at 5 µM: read-out: % inhibition at 5 μM (or 10 μM if racemate) cardiac, 5 μM (10 μM if racemate); for inhibition at 5 µM / inhibition at 50 µM: ATPase activity; for inhibition at 50 µM: read-out: % inhibition at 50 μM (or 100 μM if racemate) cardiac, 50 μM (100 μM if racemate)
T1 construct: isolated porcine cardiac ventricular myocardium (cardiac); from tissue; host or cells: porcine cardiac ventricle
Excerpt: as §1

[6] = biological target: recombinant Dictyostelium miozin (Dictyostelium) (Dictyostelium discoideum, UniProt P08799); assay: actomyosin steady state ATPase measurement, Dictyostelium myosin; assay type: biochemical; details: for IC50: concentration required for semi-maximal inhibition of ATPase, read-out: IC50 (μM) Dicty; for % inhibition. complete Dicty: maximum value of inhibition of ATPase activity; for inhibition at 5 µM: read-out: % inhibition at 5 μM (or 10 μM if racemate) Dicty; for inhibition at 50 µM: read-out: % inhibition at 50 μM (or 100 μM if racemate) Dicty; for Inhibition (%) Dicty: maximum inhibition, compounds in IC50 range 1-11 μM
Excerpt: as §1

[7] = maximum inhibition, compounds in IC50 range 1-5 μM

Sequence of recombinant Dictyostelium miozin (Dictyostelium) (P08799 whole entry): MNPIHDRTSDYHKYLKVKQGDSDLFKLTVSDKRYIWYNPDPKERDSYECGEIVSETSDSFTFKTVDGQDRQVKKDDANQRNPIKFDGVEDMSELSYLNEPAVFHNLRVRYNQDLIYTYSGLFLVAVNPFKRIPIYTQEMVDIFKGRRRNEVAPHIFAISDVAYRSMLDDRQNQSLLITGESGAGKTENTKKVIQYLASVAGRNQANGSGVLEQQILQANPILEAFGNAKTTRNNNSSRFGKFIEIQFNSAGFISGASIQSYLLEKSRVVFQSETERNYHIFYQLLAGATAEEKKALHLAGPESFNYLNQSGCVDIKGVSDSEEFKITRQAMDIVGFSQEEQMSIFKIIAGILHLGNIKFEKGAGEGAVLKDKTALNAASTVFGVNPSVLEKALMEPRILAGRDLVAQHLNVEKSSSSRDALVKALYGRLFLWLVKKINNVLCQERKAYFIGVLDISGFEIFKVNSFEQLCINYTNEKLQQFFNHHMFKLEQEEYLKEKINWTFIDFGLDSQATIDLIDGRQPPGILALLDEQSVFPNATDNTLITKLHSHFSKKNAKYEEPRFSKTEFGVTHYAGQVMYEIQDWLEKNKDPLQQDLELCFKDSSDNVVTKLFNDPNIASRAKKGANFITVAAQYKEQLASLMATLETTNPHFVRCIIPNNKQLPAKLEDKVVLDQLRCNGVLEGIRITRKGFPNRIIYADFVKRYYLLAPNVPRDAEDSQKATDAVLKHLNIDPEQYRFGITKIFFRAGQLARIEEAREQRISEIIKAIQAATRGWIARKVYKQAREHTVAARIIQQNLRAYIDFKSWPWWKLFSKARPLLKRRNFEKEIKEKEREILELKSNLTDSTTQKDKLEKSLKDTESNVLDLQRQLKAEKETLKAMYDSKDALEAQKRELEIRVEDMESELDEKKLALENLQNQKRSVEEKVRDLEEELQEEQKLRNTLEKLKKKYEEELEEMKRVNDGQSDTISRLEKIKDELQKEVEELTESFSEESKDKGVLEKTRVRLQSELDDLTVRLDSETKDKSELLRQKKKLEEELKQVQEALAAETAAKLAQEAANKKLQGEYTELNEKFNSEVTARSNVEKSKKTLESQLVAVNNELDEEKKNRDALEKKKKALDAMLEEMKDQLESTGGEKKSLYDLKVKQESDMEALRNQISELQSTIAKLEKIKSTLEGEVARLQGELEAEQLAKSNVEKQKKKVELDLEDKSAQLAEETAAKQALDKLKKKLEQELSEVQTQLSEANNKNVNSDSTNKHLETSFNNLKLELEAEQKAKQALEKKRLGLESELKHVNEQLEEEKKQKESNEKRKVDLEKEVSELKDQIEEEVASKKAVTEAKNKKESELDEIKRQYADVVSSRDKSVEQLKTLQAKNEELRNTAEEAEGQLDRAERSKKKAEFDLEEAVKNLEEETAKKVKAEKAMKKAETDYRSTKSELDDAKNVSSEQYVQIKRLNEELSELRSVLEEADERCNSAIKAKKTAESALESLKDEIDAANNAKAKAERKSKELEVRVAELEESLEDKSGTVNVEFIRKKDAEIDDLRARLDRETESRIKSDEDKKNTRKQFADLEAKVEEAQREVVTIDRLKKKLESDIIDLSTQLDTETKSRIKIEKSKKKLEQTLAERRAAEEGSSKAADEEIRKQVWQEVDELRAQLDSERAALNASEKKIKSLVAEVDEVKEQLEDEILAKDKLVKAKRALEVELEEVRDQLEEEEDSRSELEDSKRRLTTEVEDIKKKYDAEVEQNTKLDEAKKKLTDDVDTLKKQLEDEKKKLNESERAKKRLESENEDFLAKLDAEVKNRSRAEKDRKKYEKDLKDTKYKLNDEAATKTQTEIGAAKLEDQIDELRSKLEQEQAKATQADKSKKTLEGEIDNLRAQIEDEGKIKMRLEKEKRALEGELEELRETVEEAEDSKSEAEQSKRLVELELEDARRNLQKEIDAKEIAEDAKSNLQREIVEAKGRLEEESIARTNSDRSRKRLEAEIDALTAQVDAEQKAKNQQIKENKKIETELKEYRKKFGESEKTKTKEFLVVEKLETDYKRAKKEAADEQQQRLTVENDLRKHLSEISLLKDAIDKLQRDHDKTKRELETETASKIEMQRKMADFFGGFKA
T1 sequence (P79293 whole entry): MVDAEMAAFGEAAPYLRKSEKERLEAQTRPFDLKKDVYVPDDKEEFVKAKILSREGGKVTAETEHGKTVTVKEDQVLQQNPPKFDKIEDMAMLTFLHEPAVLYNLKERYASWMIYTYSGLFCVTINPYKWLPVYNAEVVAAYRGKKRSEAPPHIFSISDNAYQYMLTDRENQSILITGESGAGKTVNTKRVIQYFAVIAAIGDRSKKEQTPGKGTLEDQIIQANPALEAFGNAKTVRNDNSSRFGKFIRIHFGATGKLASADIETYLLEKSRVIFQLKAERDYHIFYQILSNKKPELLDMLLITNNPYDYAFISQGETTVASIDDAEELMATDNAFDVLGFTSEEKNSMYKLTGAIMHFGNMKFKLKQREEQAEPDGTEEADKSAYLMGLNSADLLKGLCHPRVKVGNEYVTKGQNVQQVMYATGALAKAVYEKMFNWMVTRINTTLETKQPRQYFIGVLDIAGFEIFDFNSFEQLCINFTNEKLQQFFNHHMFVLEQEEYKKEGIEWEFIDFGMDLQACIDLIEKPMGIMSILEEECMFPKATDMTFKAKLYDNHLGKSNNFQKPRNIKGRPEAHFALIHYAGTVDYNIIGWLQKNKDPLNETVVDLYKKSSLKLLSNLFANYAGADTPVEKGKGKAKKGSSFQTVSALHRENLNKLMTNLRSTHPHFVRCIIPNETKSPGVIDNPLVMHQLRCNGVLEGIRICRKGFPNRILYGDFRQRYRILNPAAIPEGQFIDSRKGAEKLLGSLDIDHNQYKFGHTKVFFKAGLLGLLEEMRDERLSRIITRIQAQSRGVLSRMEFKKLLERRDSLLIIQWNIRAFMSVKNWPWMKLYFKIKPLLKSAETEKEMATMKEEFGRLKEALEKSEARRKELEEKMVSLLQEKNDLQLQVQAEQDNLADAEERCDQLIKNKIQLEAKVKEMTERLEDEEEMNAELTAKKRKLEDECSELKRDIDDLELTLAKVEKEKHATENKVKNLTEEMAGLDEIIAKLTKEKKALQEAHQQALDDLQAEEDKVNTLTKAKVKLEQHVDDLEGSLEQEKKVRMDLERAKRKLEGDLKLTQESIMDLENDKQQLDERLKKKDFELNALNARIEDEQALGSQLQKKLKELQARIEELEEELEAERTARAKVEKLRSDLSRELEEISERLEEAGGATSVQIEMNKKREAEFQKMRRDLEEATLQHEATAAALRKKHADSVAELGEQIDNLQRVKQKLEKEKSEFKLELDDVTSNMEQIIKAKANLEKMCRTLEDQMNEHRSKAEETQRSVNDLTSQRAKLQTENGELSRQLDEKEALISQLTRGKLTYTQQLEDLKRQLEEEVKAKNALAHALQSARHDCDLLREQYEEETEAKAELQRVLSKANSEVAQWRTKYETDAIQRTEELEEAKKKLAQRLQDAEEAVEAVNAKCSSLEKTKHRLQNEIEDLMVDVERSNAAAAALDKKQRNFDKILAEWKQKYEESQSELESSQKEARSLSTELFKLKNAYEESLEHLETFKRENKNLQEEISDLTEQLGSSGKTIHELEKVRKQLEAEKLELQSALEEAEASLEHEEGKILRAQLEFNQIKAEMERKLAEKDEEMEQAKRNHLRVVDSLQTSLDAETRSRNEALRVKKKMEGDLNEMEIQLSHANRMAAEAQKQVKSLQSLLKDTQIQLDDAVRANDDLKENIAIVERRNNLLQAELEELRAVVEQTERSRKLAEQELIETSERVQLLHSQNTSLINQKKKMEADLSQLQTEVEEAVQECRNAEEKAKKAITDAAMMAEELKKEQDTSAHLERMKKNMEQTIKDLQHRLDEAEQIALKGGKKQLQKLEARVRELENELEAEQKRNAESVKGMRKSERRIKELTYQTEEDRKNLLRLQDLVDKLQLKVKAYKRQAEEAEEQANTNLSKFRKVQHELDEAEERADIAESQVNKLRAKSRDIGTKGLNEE

Row | Structure (SMILES) | IC50 [1] [µM] | % inhibition. complete NM2C [1] [%] | inhibition at 5 µM [1] [%] | inhibition at 50 µM [1] [%] | IC50 [2] [µM] | % inhibition at 5 μM (or 10 μM if racemate) Skeletal [3] [%] | % inhibition at 50 μM (or 100 μM if racemate) Skeletal [3] [%] | IC50 [3] [µM] | % inhibition. complete Skeletal [3] [%] | % inhibition at 5 μM (or 10 μM if racemate) Smooth [4] [%] | % inhibition at 50 μM (or 100 μM if racemate) Smooth [4] [%] | % inhibition. complete Smooth [4] [%] | IC50 [5] [µM] | % inhibition. complete cardiac [5] [%] | inhibition at 5 µM [5] [%] | inhibition at 50 µM [5] [%] | IC50 [6] [µM] | % inhibition. complete Dicty [6] [%] | inhibition at 5 µM [6] [%] | inhibition at 50 µM [6] [%] | further results
1 | O=C1c2ccsc2N=C2N(c3cccs3)CC[C@@]12O [Compound 218, (9S)-9-Hydroxy-12-(thiophen-2-yl)-4-thia-2,12-diazatricyclo[7.3.0.0^3,7]dodeca-1,3(7),5-trien-8-one] | 44 | 20 | 2 | 11 | 8.1 | 50 | 85 | 4.2 | 92 | 10 | 24 | 28 | 2.7 | 79 | 49 | 75 | 78 | 100 | 4 | 39 | –
2 | Cc1cc2c(s1)N=C1N(c3ccc(CO)cc3)CCC1(O)C2=O (stereo not shown) [Compound 227, 9-Hydroxy-12-[4-(hydroxymethyl)phenyl]-5-methyl-4-thia-2,12-diazatricyclo[7.3.0.0^3,7]dodeca-1,3(7),5-trien-8-one] | 2.8 | 84 | 52 | 80 | 4 | 82 | 96 | 0.83 | 97 | 54 | 92 | 99 | 0.76 | 90 | 77 | 89 | 5.1 | 100 | 47 | 96 | Inhibition (%) NM2C [1, 7]: 84%
3 | Cc1cc2c(s1)N=C1N(c3ccc(CC#N)cc3)CCC1(O)C2=O (stereo not shown) [Compound 226, 2-(4-{9-Hydroxy-5-methyl-8-oxo-4-thia-2,12-diazatricyclo[7.3.0.0^3,7]dodeca-1,3(7),5-trien-12-yl}phenyl)acetonitrile] | 1.5 | 92 | 69 | 90 | 0.5 | 91 | 92 | 0.17 | 93 | 72 | 79 | 80 | 0.73 | 85 | 72 | 83 | 5.5 | 92 | 43 | 83 | Inhibition (%) Dicty [6]: 92%
4 | COc1ccc(N2CCC3(O)C(=O)c4cc(C)sc4N=C23)cc1 (stereo not shown) [Compound 222, 9-Hydroxy-12-(4-methoxyphenyl)-5-methyl-4-thia-2,12-diazatricyclo[7.3.0.0^3,7]dodeca-1,3(7),5-trien-8-one] | 0.76 | 91 | 77 | 89 | 0.86 | 92 | 95 | 0.11 | 95 | 83 | 97 | 98 | 0.52 | 93 | 82 | 92 | 4.7 | 100 | 49 | 99 | –
5 | O=C1c2ccsc2N=C2N(c3ccc(OC(F)(F)F)cc3)CC[C@@]12O [Compound 212, (9S)-9-hydroxy-12-[4-(trifluoromethoxy)phenyl]-4-thia-2,12-diazatricyclo[7.3.0.0^3,7]dodeca-1,3(7),5-trien-8-one] | 6.4 | 61 | 19 | 56 | 10.4 | 94 | 97 | 0.19 | 98 | 24 | 61 | 74 | 5.9 | 100 | 43 | 93 | 10.9 | 84 | 26 | 69 | Inhibition (%) Dicty [6]: 84%
6 | O=C1c2ccncc2N=C2N(c3ccc(N4CCOCC4)cc3)CCC12O (stereo not shown) [Compound 248, 3a-Hydroxy-1-[4-(morpholin-4-yl)phenyl]-1H,2H,3H,3aH,4H-pyrrolo[2,3-b]1,7-naphthyridin-4-one] | – | – | – | – | > 100 | 21 | 56 | 12 | 70 | 1 | 0 | 0 | > 100 | 2 | 4 | 1 | > 100 | 100 | 0 | 7 | –
7 | O=C1c2ccncc2N=C2NCCC12O (stereo not shown) [Compound 255, 3a-Hydroxy-1H,2H,3H,3aH,4H-pyrrolo[2,3-b]1,7-naphthyridin-4-one] | – | – | – | – | 1 | 6 | 7 | 1.7 | 7 | 3 | 3 | 3 | 1 | – | 7 | 7 | 42 | 33 | 4 | 18 | Inhibition (%) skeletal [3]: 7%
8 | Cc1ccc(N2CCC3(O)C(=O)c4cc(C)sc4N=C23)cc1 (stereo not shown) [Compound 235, 12-[4-(Methyl)phenyl]-9-hydroxy-5-methyl-4-thia-2,12-diazatricyclo[7.3.0.0^3,7]dodeca-1,3(7),5-trien-8-one] | – | – | – | – | 0.01 | 98 | 100 | 0.08 | 100 | 82 | 79 | 81 | 0.01 | 71 | 72 | 70 | 0.17 | 46 | 44 | 45 | –
9 | CN(C)c1ccc(N2CC[C@@]3(O)C(=O)c4ccsc4N=C23)cc1 [Compound 249, (9S)-12-[4-(dimethylamino)phenyl]-9-hydroxy-4-thia-2,12-diazatricyclo[7.3.0.0^3,7]dodeca-1,3(7),5-trien-8-one] | – | – | – | – | 13 | 80 | 97 | 1.2 | 100 | 19 | 55 | 69 | 35 | 90 | 11 | 52 | 10 | 47 | 15 | 39 | Inhibition (%) skeletal [3]: 100%
10 | CC(=O)c1ccc(N2CCC3(O)C(=O)c4ccncc4N=C23)cc1 (stereo not shown) [Compound 240, 1-(4-Acetylphenyl)-3a-hydroxy-1H,2H,3H,3aH,4H-pyrrolo[2,3-b]1,7-naphthyridin-4-one] | – | – | – | – | 1.5 | 49 | 83 | 4.3 | 91 | 18 | 23 | 24 | 8.1 | 37 | 13 | 31 | 0.39 | – | 24 | 26 | Inhibition (%) smooth [4, 7]: 24%
